Values of other authors, collected in patent publication US8216611B2, “Combined-step process for pharmaceutical compositions” (Mylan Pharmaceuticals ULC, priority 2005, dated 2012).

Experiments:
healthy volunteers = system: healthy volunteers; design: tolerability at single dose: dose or concentration left out as unconfirmed
epileptic patients = details: doses up to 4000 mg/day, preliminary data

CC[C@@H](C(N)=O)N1CCCC1=O [levetiracetam, (−)-(S)-α-ethyl-2-oxo-1-pyrrolidine acetamide]
tolerability at repeated doses (healthy volunteers; repeated doses (1500 mg/day for 14 days)): well tolerated | tolerability at single dose (healthy volunteers; single dose): well tolerated | tolerability in epileptic patients (epileptic patients): good tolerability | solubility in water: 104.0 g/100 ml
